Target: T1, rat NaP2b (SLC34A2) (Rattus norvegicus, UniProt Q9JJ09)
T1 construct: host or cells: HEK293
T1 sequence (Q9JJ09 1-695): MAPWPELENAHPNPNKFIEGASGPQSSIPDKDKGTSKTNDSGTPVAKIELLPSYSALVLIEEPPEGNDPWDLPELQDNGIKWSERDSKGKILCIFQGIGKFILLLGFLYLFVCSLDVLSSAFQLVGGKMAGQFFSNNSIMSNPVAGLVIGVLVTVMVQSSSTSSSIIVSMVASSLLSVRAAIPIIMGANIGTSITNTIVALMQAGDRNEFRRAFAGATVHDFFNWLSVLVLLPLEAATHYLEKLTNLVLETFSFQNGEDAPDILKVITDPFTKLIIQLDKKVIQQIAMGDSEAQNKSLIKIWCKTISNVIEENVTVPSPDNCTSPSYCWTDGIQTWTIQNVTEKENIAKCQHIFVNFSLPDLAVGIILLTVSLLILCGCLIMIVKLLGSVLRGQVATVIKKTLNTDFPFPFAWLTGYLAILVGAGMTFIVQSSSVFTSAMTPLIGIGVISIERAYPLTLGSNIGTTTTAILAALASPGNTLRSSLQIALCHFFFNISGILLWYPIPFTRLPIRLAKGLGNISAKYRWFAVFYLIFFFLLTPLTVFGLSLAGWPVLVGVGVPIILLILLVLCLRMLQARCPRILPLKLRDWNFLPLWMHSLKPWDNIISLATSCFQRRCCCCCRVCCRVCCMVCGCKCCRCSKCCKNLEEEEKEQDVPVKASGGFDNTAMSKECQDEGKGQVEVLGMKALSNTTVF
Assay: Inhibition of NaP2b-mediated Pi (33P) uptake in transfected HEK293 cells, rat NaP2b
Format: cell-based
Settings: 33P Pi uptake, 0.1 mM phosphate, value given as pIC50 range
Experimental: HEK293 cells were obtained from the American Type Culture collection and propagated per their instructions. […] The sequence of the human protein was mutated to insert a threonine after residue 37, and to introduce a N39D mutation.
Cells were seeded into 96-well plates at 25,000 cells/well and cultured overnight. Lipofectamine 2000 (Invitrogen) was used to introduce the NaP2b cDNA, and the cells were allowed to approach confluence during a second overnight incubation. […] Each compound was tested at twelve concentrations ranging from 0.1 nM to 30 uM. Assays were run in duplicate.
Cells were lysed by addition of 20 μL 0.1% Tween 80 followed by 100 μL scintillation fluid, and counted using a TopCount (Perkin Elmer).
pIC50 (the negative log of the IC50) values of the test compounds were calculated using GraphPad Prism.

IC50 [µM] | Structure (SMILES)
1 to 7.94 | O=C(O)CCSCc1cccc(C(=O)Nc2ccc(N3CCCCC3)cc2-c2cc(C(=O)NCc3ccccc3C(F)(F)F)ccn2)c1 [Example 1.48]
1 to 7.94 | Cc1ccc(CNC(=O)c2ccnc(-c3cc(N4CCCCC4)ccc3NC(=O)c3cccc(CSCCC(=O)O)c3)c2)cc1C [Example 1.49]
10 to 31.6 | Cc1cccc(CNc2cc(-c3cc(N4CCCCC4)ccc3NC(=O)c3cccc(CSCCC(=O)O)c3)ncn2)c1 [Example 3.2, 3-((3-((4-(Piperidin-1-yl)-2-(6-((3-methylbenzyl)amino)pyrimidin-4-yl)phenyl)carbamoyl)benzyl)thio)propanoic acid]
10 to 31.6 | O=C(O)CCSCc1cccc(C(=O)Nc2ccc(N3CCCCC3)cc2-c2cc(NCCc3cccc(C(F)(F)F)c3)ncn2)c1 [Example 3.3, 3-((3-((4-(Piperidin-1-yl)-2-(6-((3-(trifluoromethyl)phenethyl)amino)pyrimidin-4-yl)phenyl)carbamoyl)benzyl)thio)propanoic acid]
10 to 31.6 | Cc1ccc(CNc2cc(-c3cc(N4CCCCC4)ccc3NC(=O)c3cccc(CSCCC(=O)O)c3)ncn2)cc1C [Example 3.4, 3-((3-((2-(6-((3,4-Dimethylbenzyl)amino)pyrimidin-4-yl)-4-(piperidin-1-yl)phenyl)carbamoyl)benzyl)thio)propanoic acid]
1 to 7.94 | O=C(O)CCSCc1cccc(C(=O)Nc2ccc(N3CCCCC3)cc2-c2cc(NCc3ccc(Cl)c(C(F)(F)F)c3)ncn2)c1 [Example 3.5, 3-((3-((2-(6-((4-Chloro-3-(trifluoromethyl)benzyl)amino)pyrimidin-4-yl)-4-(piperidin-1-yl)phenyl)carbamoyl)benzyl)thio)propanoic acid]
10 to 31.6 | O=C(O)CCSCc1cccc(C(=O)Nc2ccc(N3CCCCC3)cc2-c2cc(OCc3cccc(C(F)(F)F)c3)ncn2)c1 [Example 3.8, 3-((3-((4-(Piperidin-1-yl)-2-(6-((3-(trifluoromethyl)benzyl)oxy)pyrimidin-4-yl)phenyl)carbamoyl)benzyl)thio)propanoic acid]
10 to 31.6 | O=C(O)CCSCc1cccc(C(=O)Nc2ccc(N3CCCCC3)cc2-c2cc(Oc3cccc(C(F)(F)F)c3)ncn2)c1 [Example 3.9, 3-((3-((4-(Piperidin-1-yl)-2-(6-(3-(trifluoromethyl)phenoxy)pyrimidin-4-yl)phenyl)carbamoyl)benzyl)thio)propanoic acid]
10 to 31.6 | CCN(CC)CCN(C)C(=O)c1cccc(C(=O)Nc2ccc(N3CCCCC3)cc2-c2cc(C(=O)NCc3cccc(C(F)(F)F)c3)ccn2)c1 [Example 4.1, N1-(2-(Diethylamino)ethyl)-N1-methyl-N3-(4-(piperidin-1-yl)-2-(4-((3-(trifluoromethyl)benzyl)carbamoyl)pyridin-2-yl)phenyl)isophthalamide]
1 to 7.94 | COCCNC(=O)CCN(C)C(=O)c1cccc(C(=O)Nc2ccc(N3CCCCC3)cc2-c2cc(C(=O)NCc3cccc(C(F)(F)F)c3)ccn2)c1 [Example 4.2, N1-(2-(4-((3-(Trifluoromethyl)benzyl)carbamoyl)pyridin-2-yl)-4-(piperidin-1-yl)phenyl)-N3-(3-(2-methoxyethylamino)-3-oxopropyl)-N3-methylisophthalamide]
1 to 7.94 | CN(CCOCCO)C(=O)c1cccc(C(=O)Nc2ccc(N3CCCCC3)cc2-c2cc(C(=O)NCc3cccc(C(F)(F)F)c3)ccn2)c1 [Example 4.3, N1-(2-(2-Hydroxyethoxy)ethyl)-N1-methyl-N3-(4-(piperidin-1-yl)-2-(4-((3-(trifluoromethyl)benzyl)carbamoyl)pyridin-2-yl)phenyl)isophthalamide]
1 to 7.94 | CN(CCN1CCN(C(=O)OC(C)(C)C)CC1)C(=O)c1cccc(C(=O)Nc2ccc(N3CCCCC3)cc2-c2cc(C(=O)NCc3cccc(C(F)(F)F)c3)ccn2)c1 [Example 4.5, Tert-butyl 4-(2-(N-methyl-3-((4-(piperidin-1-yl)-2-(4-((3-(trifluoromethyl)benzyl)carbamoyl)pyridin-2-yl)phenyl)carbamoyl)benzamido)ethyl)piperazine-1-carboxylate]
10 to 31.6 | CC(=O)N1CCN(C(=O)c2cccc(C(=O)Nc3ccc(N4CCCCC4)cc3-c3cc(C(=O)NCc4cccc(C(F)(F)F)c4)ccn3)c2)CC1 [Example 4.6, 2-(2-(3-(4-Acetylpiperazine-1-carbonyl)benzamido)-5-(piperidin-1-yl)phenyl)-N-(3-(trifluoromethyl)benzyl)isonicotinamide]
10 to 31.6 | CC(=O)NC1CCN(C(=O)c2cccc(C(=O)Nc3ccc(N4CCCCC4)cc3-c3cc(C(=O)NCc4cccc(C(F)(F)F)c4)ccn3)c2)CC1 [Example 4.7, 2-(2-(3-(4-Acetamidopiperidine-1-carbonyl)benzamido)-5-(piperidin-1-yl)phenyl)-N-(3-(trifluoromethyl)benzyl)isonicotinamide]
1 to 7.94 | CCN(CCN1CCOCC1)C(=O)c1cccc(C(=O)Nc2ccc(N3CCCCC3)cc2-c2cc(C(=O)NCc3cccc(C(F)(F)F)c3)ccn2)c1 [Example 4.8, N1-Ethyl-N1-(2-morpholinoethyl)-N3-(4-(piperidin-1-yl)-2-(4-((3-(trifluoromethyl)benzyl)carbamoyl)pyridin-2-yl)phenyl)isophthalamide]
10 to 31.6 | CC(=O)N[C@H]1CCN(C(=O)c2cccc(C(=O)Nc3ccc(N4CCCCC4)cc3-c3cc(C(=O)NCc4cccc(C(F)(F)F)c4)ccn3)c2)C1 [Example 4.9, (S)-2-(2-(3-(3-Acetamidopyrrolidine-1-carbonyl)benzamido)-5-(piperidin-1-yl)phenyl)-N-(3-(trifluoromethyl)benzyl)isonicotinamide]
1 to 7.94 | O=C(NCc1cccc(C(F)(F)F)c1)c1ccnc(-c2cc(N3CCCCC3)ccc2NC(=O)c2cccc(C(=O)N(CCN3CCOCC3)C3CC3)c2)c1 [Example 4.11, N1-Cyclopropyl-N1-(2-morpholinoethyl)-N3-(4-(piperidin-1-yl)-2-(4-((3-(trifluoromethyl)benzyl)carbamoyl)pyridin-2-yl)phenyl)isophthalamide]
1 to 7.94 | O=C(NCc1cccc(C(F)(F)F)c1)c1ccnc(-c2cc(N3CCCCC3)ccc2NC(=O)c2cccc(C(=O)N(CCN3CCOCC3)Cc3ccccc3)c2)c1 [Example 4.12, N1-Benzyl-N1-(2-morpholinoethyl)-N3-(4-(piperidin-1-yl)-2-(4-((3-(trifluoromethyl)benzyl)carbamoyl)pyridin-2-yl)phenyl)isophthalamide]
1 to 7.94 | CC(=O)N1CCCN(C(=O)c2cccc(C(=O)Nc3ccc(N4CCCCC4)cc3-c3cc(C(=O)NCc4cccc(C(F)(F)F)c4)ccn3)c2)CC1 [Example 4.13, 2-(2-(3-(4-Acetyl-1,4-diazepane-1-carbonyl)benzamido)-5-(piperidin-1-yl)phenyl)-N-(3-(trifluoromethyl)benzyl)isonicotinamide]
1 to 7.94 | COCCNC(=O)[C@H]1CCCN(C(=O)c2cccc(C(=O)Nc3ccc(N4CCCCC4)cc3-c3cc(C(=O)NCc4cccc(C(F)(F)F)c4)ccn3)c2)C1 [Example 4.14, (S)-2-(2-(3-(3-((2-Methoxyethyl)carbamoyl)piperidine-1-carbonyl)benzamido)-5-(piperidin-1-yl)phenyl)-N-(3-(trifluoromethyl)benzyl)isonicotinamide]

— US20140023611A1 (priority 2010, published 2014)
